Values quoted from earlier work in patent US8648119B2, “Controlled release immunomodulator compositions and methods for the treatment of otic disorders” (Otonomy, Inc., priority 2008, dated 2014).

Key:
[1] = system: patients
[2] = system: LPS-challenged mice
[3] = system: rat arthritis model; conditions: 30 mg/kg
[4] = target: T1, lymphotoxin (TNF-β (Homo sapiens, UniProt P01374))
T1 sequence (P01374 35-205): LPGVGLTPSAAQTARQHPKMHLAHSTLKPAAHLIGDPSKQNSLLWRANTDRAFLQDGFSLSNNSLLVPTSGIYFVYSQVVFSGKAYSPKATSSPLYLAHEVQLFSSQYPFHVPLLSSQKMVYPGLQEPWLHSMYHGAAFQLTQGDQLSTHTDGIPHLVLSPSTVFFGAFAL

[5] = system: TNF expressing cells; conditions: in vitro, in the presence of complement
[6] = system: Langerhans' cells or dermal connective tissue; conditions: in vivo
[7] = system: Meniere's disease; conditions: infusion into the scala tympani
[8] = system: patients; conditions: three phase-III clinical trials
[9] = system: TNF-α production in the LPS-induced human PBMC cells; conditions: read-out: IC50 for inhibiting TNF-α production
[10] = system: mouse collagen-induced arthritis model; conditions: 30 mg/kg dose
[11] = target: TACE (Homo sapiens, UniProt P78536)
Chain of TACE (P78536 215-824): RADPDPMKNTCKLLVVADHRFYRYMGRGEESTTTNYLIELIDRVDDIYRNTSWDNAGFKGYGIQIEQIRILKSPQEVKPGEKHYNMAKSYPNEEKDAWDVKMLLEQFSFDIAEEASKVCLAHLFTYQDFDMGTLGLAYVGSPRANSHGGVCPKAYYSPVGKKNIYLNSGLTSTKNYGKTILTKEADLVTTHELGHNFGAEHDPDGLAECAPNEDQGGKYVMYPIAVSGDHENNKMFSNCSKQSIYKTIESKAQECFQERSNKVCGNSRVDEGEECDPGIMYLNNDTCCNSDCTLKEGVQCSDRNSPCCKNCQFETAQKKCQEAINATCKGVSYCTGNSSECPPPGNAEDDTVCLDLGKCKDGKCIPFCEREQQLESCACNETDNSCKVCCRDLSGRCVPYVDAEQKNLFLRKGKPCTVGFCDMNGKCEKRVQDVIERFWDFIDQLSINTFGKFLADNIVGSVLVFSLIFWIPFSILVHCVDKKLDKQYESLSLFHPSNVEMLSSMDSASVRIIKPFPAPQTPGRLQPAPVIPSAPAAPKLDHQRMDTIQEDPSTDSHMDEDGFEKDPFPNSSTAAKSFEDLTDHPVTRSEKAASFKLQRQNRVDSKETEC

[12] = in vivo
[13] = system: TNF-α production in the LPS-induced MonoMac-6 cells; conditions: read-out: IC50 for inhibiting TNF-α production

For etanercept, the “patients experiencing injection site reactions (mild to moderate erythema and/or itching, pain and/or swelling)” value ([1]; systemically treated) is given as “over one-third of patients”.
For `O=C(Nc1cc(Cl)cc2c1[nH]c1cnccc12)c1cccnc1` [PS-1145], the “production of TNF-α” value [2] is listed as “reduces the production of TNF-α”.
In the case of `COc1cccc2nc(-c3cccs3)nc(NN3C(=O)C=C(C)C3=O)c12` [SPC-839], the paw edema [3] is listed as “reduces paw edema”.
For Adalimumab, the “binding or inactivation of lymphotoxin (TNF-β)” value [4] is given as “does not bind or inactivate lymphotoxin”, the “lysis of TNF expressing cells” value [5] is given as “lyses TNF expressing cells in vitro” and the “patients developing injection site reactions (erythema and/or itching, hemorrhage, pain and/or swelling)” value ([1]; systemic administration) is given as 20%.
In the case of `CC[C@@H]1/C=C(\C)C[C@H](C)C[C@H](OC)[C@H]2O[C@@](O)(C(=O)C(=O)N3CCCC[C@H]3C(=O)O[C@H](/C(C)=C/[C@@H]3CC[C@H](Cl)[C@H](OC)C3)[C@H](C)[C@@H](O)CC1=O)[C@H](C)C[C@@H]2OC` [pimecrolimus, (1R,9S,12S,13R,14S,17R,18E,21S,23S,24R,25S,27R)-12-[(1E)-2-{(1R,3R,4S)-4-chloro-3-methoxycyclohexyl}-1-methylvinyl]-17-ethyl-1,14-dihydroxy-23,25-dimethoxy-13,19,21,27-tetramethyl-11,28-dioxa-4-aza-tricyclo[22.3.1.04,9]octacos-18-ene-2,3,10,16-tetraone], the “systemic exposure after topical application” value is given as “very little, if any, systemic exposure”, the “atrophy of the skin” value [6] is given as “do not cause atrophy of the skin” and the “suppression of Langerhans' cells or dermal connective tissue” value [6] is given as “do not suppress Langerhans' cells or dermal connective tissue”.
For `Cc1ccccc1C(=O)Nc1ccc(C(=O)N2CCCC(N(C)C)c3ccccc32)cc1` (centres unmarked) [OPC-31260], the “Meniere's disease symptoms” value [7] is listed as “marked reduction of Meniere's disease symptoms”.
In the case of “onercept: a soluble TNF p55 receptor, TNF binding factor (Serono)”, the “adverse outcome reported in phase-III clinical trials” value [8] is given as “patients diagnosed with fatal sepsis”.
For `CC[C@H](C)[C@H](NC(=O)[C@H](CC(C)C)[C@H](C(C)C)N(O)C=O)C(=O)Nc1ccccn1` [GW3333], the IC50 [9] is listed as 970 nM.
In the case of `C=CC[C@@H]1/C=C(\C)C[C@H](C)C[C@H](OC)[C@H]2O[C@@](O)(C(=O)C(=O)N3CCCC[C@H]3C(=O)O[C@H](/C(C)=C/[C@@H]3CC[C@@H](O)[C@H](OC)C3)[C@H](C)[C@@H](O)CC1=O)[C@H](C)C[C@@H]2OC` (relative stereo) [tacrolimus, [3S-[3R*[E(1S*,3S*,4S*)], 4S*,5R*,8S*,9E,12R*,14R*,15S*,16R*,18S*,19S*,26aR*]]-5,6,8,11,12,13,14,15,16,17,18,19,24,25,26,26a-hexadecahydro-5,19-dihydroxy-3-[2-(4-hydroxy-3-methoxycyclohexyl)-1-methylethenyl]-14,16-dimethoxy-4,10,12,18-tetramethyl-8-(2-propenyl)-15,19-epoxy-3H-pyrido[2,1-39c][1,4]oxaazacyclotricosine-1,7,20,21 (4H,23H)-tetrone monohydrate], the “bioavailability after topical application” value is given as “less than 0.5%”, the “systemic exposure after topical application” value is given as “very little, if any, systemic exposure” and the “atrophy of the skin” value [6] is given as “do not cause atrophy of the skin”. The “suppression of Langerhans' cells or dermal connective tissue” value [6] was “do not suppress Langerhans' cells or dermal connective tissue”.
For `Cc1ccc2nc(NCCN)c3ncc(C)n3c2c1` [BMS-345541], the severity of disease [10] is given as “significantly reduced the severity of disease”.
For `CC(C)C[C@@H](C(=O)N[C@@H](CCCN/C(N)=N/[N+](=O)[O-])C(=O)Nc1nccs1)[C@H](C(C)C)N(O)C=O` [Nitroarginine analog A], the IC50 [11] is listed as 4 nM, the oral activity [12] is listed as “lacks oral activity” and the IC50 [13] is listed as 34 nM.
